Data: US10405547B2, “Substituted cyclic amides as herbicides” (FMC Corporation, priority 2015, dated 2019)

What was measured:
Format in all cases: in vivo
[1] = tested on: ragweed (common ragweed, Ambrosia elatior); experiment: Test A postemergence, ragweed; details: 0 to 100 scale (0 no effect, 100 complete control)
Outline: (§1)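 Ratings use a 0–100 scale, where 0 means no effect and 100 means complete control, and come from visual comparison with untreated plants roughly 10 days after treatment. Compounds were applied in a surfactant-containing, non-phytotoxic solvent, either to soil after seeding or to foliage of small seedlings.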

[2] = tested on: blackgrass (Alopecurus myosuroides); experiment: Test A postemergence, blackgrass; details: 0 to 100 scale (0 no effect, 100 complete control)
Outline: as §1

[3] = tested on: barnyardgrass (Echinochloa crus-galli); experiment: Test B flooded paddy test, barnyardgrass; details: 250 g ai/ha, applied to paddy water, visual rating after 13 to 15 days, scale 0 (no effect) to 100 (complete control)
Outline: (§2)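 Pots were flooded to 3 cm above the soil surface at treatment, compound applied directly to the paddy water, and that depth held throughout. Plants were kept in a greenhouse for 13 to 15 days, then visually rated against untreated controls.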

[4] = tested on: ragweed (common ragweed, Ambrosia elatior); experiment: Test A preemergence, ragweed; details: 0 to 100 scale (0 no effect, 100 complete control)
Outline: as §1

corn (Zea mays) = experiment: Test A postemergence, corn; details: 0 to 100 scale (0 no effect, 100 complete control)
Outline: as §1

[5] = tested on: pigweed (Amaranthus retroflexus); experiment: Test A preemergence, pigweed; details: 0 to 100 scale (0 no effect, 100 complete control)
Outline: as §1

[6] = tested on: sedge, umbrella (small-flower umbrella sedge, Cyperus difformis); experiment: Test B flooded paddy test, umbrella sedge; details: 250 g ai/ha, applied to paddy water, visual rating after 13 to 15 days, scale 0 (no effect) to 100 (complete control)
Outline: as §2

[7] = tested on: ryegrass, Italian (Lolium multiflorum); experiment: Test A preemergence, Italian ryegrass; details: 0 to 100 scale (0 no effect, 100 complete control)
Outline: as §1

[8] = tested on: wheat (Triticum aestivum); experiment: Test A postemergence, wheat; details: 0 to 100 scale (0 no effect, 100 complete control)
Outline: as §1

[9] = tested on: barnyardgrass (Echinochloa crus-galli); experiment: Test A postemergence, barnyardgrass; details: 0 to 100 scale (0 no effect, 100 complete control)
Outline: as §1

[10] = tested on: galium (catchweed bedstraw, Galium aparine); experiment: Test A postemergence, galium; details: 0 to 100 scale (0 no effect, 100 complete control)
Outline: as §1

rice (Oryza sativa) = experiment: Test B flooded paddy test, rice; details: 250 g ai/ha, applied to paddy water, visual rating after 13 to 15 days, scale 0 (no effect) to 100 (complete control)
Outline: as §2

kochia (Kochia scoparia) [11] = experiment: Test A preemergence, kochia; details: 0 to 100 scale (0 no effect, 100 complete control)
Outline: as §1

[12] = tested on: foxtail, giant (Setaria faberii); experiment: Test A preemergence, giant foxtail; details: 0 to 100 scale (0 no effect, 100 complete control)
Outline: as §1

[13] = tested on: ducksalad (Heteranthera limosa); experiment: Test B flooded paddy test, ducksalad; details: 250 g ai/ha, applied to paddy water, visual rating after 13 to 15 days, scale 0 (no effect) to 100 (complete control)
Outline: as §2

[14] = tested on: pigweed (Amaranthus retroflexus); experiment: Test A postemergence, pigweed; details: 0 to 100 scale (0 no effect, 100 complete control)
Outline: as §1

kochia (Kochia scoparia) [15] = experiment: Test A postemergence, kochia; details: 0 to 100 scale (0 no effect, 100 complete control)
Outline: as §1

[16] = tested on: foxtail, giant (Setaria faberii); experiment: Test A postemergence, giant foxtail; details: 0 to 100 scale (0 no effect, 100 complete control)
Outline: as §1

[17] = tested on: barnyardgrass (Echinochloa crus-galli); experiment: Test A preemergence, barnyardgrass; details: 0 to 100 scale (0 no effect, 100 complete control)
Outline: as §1

[18] = tested on: ryegrass, Italian (Lolium multiflorum); experiment: Test A postemergence, Italian ryegrass; details: 0 to 100 scale (0 no effect, 100 complete control)
Outline: as §1

[19] = 125 g ai/ha, visual injury, approximately 10 days
[20] = 500 g ai/ha, visual injury, approximately 10 days

SMILES | Plant response rating, Ragweed [1, 19] | Plant response rating, Blackgrass [2, 19] | Plant response rating, Barnyardgrass (Flood) [3] | Plant response rating, Ragweed ([4]; 125 g ai/ha) | Plant response rating, Corn (corn (Zea mays); [19]) | Plant response rating, Pigweed ([5]; 125 g ai/ha) | Plant response rating, Sedge, Umbrella (Flood) [6] | Plant response rating, Ryegrass, Italian ([7]; 125 g ai/ha) | Plant response rating, Wheat [8, 19] | Plant response rating, Barnyardgrass [9, 19] | Plant response rating, Galium [10, 19] | Plant response rating, Rice (Flood) (rice (Oryza sativa)) | Plant response rating, Kochia (kochia (Kochia scoparia) [11]; 125 g ai/ha) | Plant response rating, Foxtail, Giant ([12]; 125 g ai/ha) | Plant response rating, Ducksalad (Flood) [13] | Plant response rating, Pigweed [14, 19] | Plant response rating, Kochia (kochia (Kochia scoparia) [15]; [19]) | Plant response rating, Foxtail, Giant [16, 19] | Plant response rating, Barnyardgrass ([17]; 125 g ai/ha) | Plant response rating, Ryegrass, Italian [18, 19] | further results
O=C1NCC(c2cccc(OCC3OCCO3)c2)C1C(=O)Nc1ccccc1F (stereo not drawn) [Compound 8] | 0 | 0 | 0 | 0 | 0 | 0 | 0 | 0 | 0 | 0 | 0 | 0 | 0 | 80 | 35 | 0 | 0 | 0 | 50 | 0 | Plant response rating, Ragweed [1, 20]: 10; Plant response rating, Blackgrass [2, 20]: 20; Plant response rating, Ragweed ([4]; 500 g ai/ha): 0; Plant response rating, Corn (corn (Zea mays); [20]): 20; Plant response rating, Pigweed ([5]; 500 g ai/ha): 0; Plant response rating, Ryegrass, Italian ([7]; 500 g ai/ha): 0; Plant response rating, Wheat [8, 20]: 0; Plant response rating, Barnyardgrass [9, 20]: 70; Plant response rating, Galium [10, 20]: 0; Plant response rating, Kochia (kochia (Kochia scoparia) [11]; 500 g ai/ha): 0; Plant response rating, Foxtail, Giant ([12]; 500 g ai/ha): 90; Plant response rating, Pigweed [14, 20]: 0; Plant response rating, Kochia (kochia (Kochia scoparia) [15]; [20]): 0; Plant response rating, Foxtail, Giant [16, 20]: 70; Plant response rating, Barnyardgrass ([17]; 500 g ai/ha): 80; Plant response rating, Ryegrass, Italian [18, 20]: 0
CN1C[C@H](c2cccc(Oc3ccc(F)cn3)c2)[C@@H](C(=O)Nc2ccc(F)c(F)c2F)C1=O [Compound 87, (3S,4S)-4-[3-[(5-fluoro-2-pyridinyl)oxy]phenyl]-1-methyl-2-oxo-N-(2,3,4-trifluorophenyl)-3-pyrrolidinecarboxamide] | 0 | 60 | 60 | 0 | 90 | 70 | 0 | 80 | 40 | 80 | 60 | 0 | 60 | 90 | 85 | 70 | 30 | 80 | 90 | 70 | Plant response rating, Ragweed ([1]; 31 g ai/ha): 0; Plant response rating, Blackgrass ([2]; 31 g ai/ha): 30; Plant response rating, Ragweed ([4]; 31 g ai/ha): 0; Plant response rating, Corn (corn (Zea mays); 31 g ai/ha): 60; Plant response rating, Pigweed ([5]; 31 g ai/ha): 70; Plant response rating, Ryegrass, Italian ([7]; 31 g ai/ha): 0; Plant response rating, Wheat ([8]; 31 g ai/ha): 0; Plant response rating, Barnyardgrass ([9]; 31 g ai/ha): 50; Plant response rating, Galium ([10]; 31 g ai/ha): 30; Plant response rating, Kochia (kochia (Kochia scoparia) [11]; 31 g ai/ha): 0; Plant response rating, Foxtail, Giant ([12]; 31 g ai/ha): 90; Plant response rating, Pigweed ([14]; 31 g ai/ha): 0; Plant response rating, Kochia (kochia (Kochia scoparia) [15]; 31 g ai/ha): 0; Plant response rating, Foxtail, Giant ([16]; 31 g ai/ha): 70; Plant response rating, Barnyardgrass ([17]; 31 g ai/ha): 60; Plant response rating, Ryegrass, Italian ([18]; 31 g ai/ha): 40
O=C1NCC(c2cccc(OCc3ccco3)c2)C1C(=O)Nc1ccccc1Cl (stereo not drawn) [Compound 1] | 0 | 0 | 0 | 0 | 0 | 0 | 30 | 0 | 0 | 0 | 0 | 0 | 0 | 0 | 65 | 0 | 0 | 0 | 0 | 0 | Plant response rating, Ragweed [1, 20]: 30; Plant response rating, Blackgrass [2, 20]: 0; Plant response rating, Ragweed ([4]; 500 g ai/ha): 0; Plant response rating, Corn (corn (Zea mays); [20]): 0; Plant response rating, Pigweed ([5]; 500 g ai/ha): 0; Plant response rating, Ryegrass, Italian ([7]; 500 g ai/ha): 0; Plant response rating, Wheat [8, 20]: 0; Plant response rating, Barnyardgrass [9, 20]: 0; Plant response rating, Galium [10, 20]: 0; Plant response rating, Kochia (kochia (Kochia scoparia) [11]; 500 g ai/ha): 0; Plant response rating, Foxtail, Giant ([12]; 500 g ai/ha): 0; Plant response rating, Pigweed [14, 20]: 0; Plant response rating, Kochia (kochia (Kochia scoparia) [15]; [20]): 0; Plant response rating, Foxtail, Giant [16, 20]: 0; Plant response rating, Barnyardgrass ([17]; 500 g ai/ha): 0; Plant response rating, Ryegrass, Italian [18, 20]: 0
